Test results: patent publication US20160220710A1, “COMPOSITIONS AND METHODS FOR DELIVERING PHARMACEUTICAL AGENTS” (THE REGENTS OF THE UNIVERSITY OF MICHIGAN, priority 2015, published 2016)
Entries after “also recorded” stand apart in the source; their conditions may differ.

What was measured:
[1] = system: F4/80(+) peritoneal macrophages (PMΦ); experiment: Flow cytometry of peritoneal exudate of CFZ-treated mice; type: in vivo
Description: Mice (4 week old, male C57Bl6) were purchased from the Jackson Laboratory (Bar Harbor, Me.) and acclimatized for 1 week in a specific-pathogen-free animal facility. Animal care was provided by the University of Michigan's Unit for Laboratory Animal Medicine (ULAM) and the experimental protocol was approved by the Committee on Use and Care of Animals in accordance with NIH guidelines. An oral diet containing CFZ was fed to mice as previously described (Baik J, et al., Antimicrob. Agents Chemother. 2013; 57:1218-30; Baik J, et al., PLoS One 2012; 7:e47494; Keswani R K, et al., Mol. Pharm. 2015:10). CFZ (C8895; Sigma-Aldrich, St. Louis, Mo., USA) was dissolved in sesame oil (Roland, China, or Shirakiku, Japan) to achieve a concentration of 3 mg/ml, which was mixed with Powdered Lab Diet 5001 (PMI International, Inc., St. Louis, Mo., USA) to produce a 0.03% drug to powdered feed mix. A corresponding amount of sesame oil was mixed with chow for vehicle treatment (control mice). On average, food consumption for a 25 g mouse was 3 g per day, resulting in 10 mg of bioavailable drug/kg per day. For CFZ treatment, the drug diet was administered for 8 weeks followed by regular chow for 8 weeks (washout phase).
Peritoneal lavage was done as previously reported before and after the initiation of CFZ or vehicle treatment (1 week, 2 weeks, 4 weeks, 8 weeks and 16 weeks (8 weeks drug feed+8 weeks washout phase)) (16). Mice were euthanized as described above followed by sterilization of the outer skin with 70% ethanol. A small incision was made along the midline of the abdomen followed by abdominal skin retraction up to the thoracic boundary and the animal extremities to expose the intact peritoneal wall. A smaller incision was then made on the peritoneal wall to expose the cavity. The entire peritoneal cavity was washed with ice-cold sterile PBS+5% FBS (5-10 ml) and collected as peritoneal exudate. The exudate was then centrifuged (100×g for 5 min, 4° C.) and resuspended in 1.5 ml of PBS+5% FBS. Cells were counted using a hemocytometer for viable cells using Trypan Blue and for CLDI-containing cells.
Peritoneal and alveolar lavage was performed as stated before to obtain the respective exudates. Purified Fc block CD16/32 (1 μl) was added for every 100,000 cells for analysis. For CLDI fluorescence signal experiments, cells were pelleted by centrifugation (100×g for 5 min) followed by resuspension in PBS+5% FBS (500 μl). For functional assays, antibodies—anti-F4/80-eFluor 450 (48-4801, Affymetrix eBioscience, San Diego, Calif., USA), anti-CD86-FITC (553691, BD Biosciences, San Jose, Calif., USA), anti-CD206-FITC (141704, BioLegend®, San Diego, Calif., USA), anti-CD11c-eFluor450 (48-0114, Affymetrix eBioscience) and anti-Ly6G-eFluor450 (48-5931, Affymetrix eBioscience) were added to the cell suspension at a loading of 1 μg/100,000 cells (1:10 volumetric ratio) and incubated in the dark (30 min, 4° C.). Following incubation, the samples were diluted with PBS and pelleted by centrifugation (100×g, 5 min). The supernatant was discarded and the pellet was re-suspended in 300 μl of PBS+2% FBS. Just prior to analysis, PI (5 μl per 1×10^6 cells) was added to the cells to assess viability. Sample measurements were done on a MoFlo® Astrios™ EQ. All gating and analysis was done on at least 10,000 live cells (PI(−) cell population) using FlowJo. CLDI(+) cells were gated either using 640 671/30 or 640 795/70. […] These cells also had extremely high side-scatter that were measured as saturated signals. This small sub-population of cells were not considered for evaluation of change of CD206 expression in the peritoneal macrophages.

RAW 264.7 cells = experiment: Cell viability assay (XTT assay); type: cell-based, murine; details: 24 h
Experimental: Cells were plated in triplicate wells at a density of 5×10^3 per well in 96-well plates in DMEM with 5% FBS and allowed to adhere overnight. Soluble CFZ (Stock solution 5 mM in DMSO) or CLDIs were added (0.25, 0.5, 1, 2, 4, 10, 20, 40 and 80 μM final concentrations) to cells and incubated (37° C.) for 24 h. XTT assay (Roche, UK) was carried out according to the manufacturer's instructions with absorbance measured at 450 nm and 690 nm using a Synergy-2 plate reader (Biotek). The cell viability percentage was calculated by comparing absorbance of CFZ and CLDI-treated cells to control (untreated) cells.

[2] = system: carrageenan-induced footpad inflammation; experiment: Carrageenan foot edema test; type: in vivo, mice
Experimental: Clofazimine (CFZ, Sigma-Aldrich, C8895) was prepared in sesame oil (Shirakiku, Japan, or Roland, China) and Powdered Lab Diet 5001 (PMI International, Inc., St. Louis, Mo.) and orally administrated to Wild-type (WT) C57BL/6 mice or IL-1RA^−/− (4-5 week old, Jackson Laboratory, Bar Harbor, Me.) for up to 8 weeks ad libitum as previously described (Baik et al., 2013, supra; Baik et al., 2011, supra). Control mice were fed with the same diet without CFZ. The animal protocol was approved by the University of Michigan's Animal Care and Use Committee in accordance with the National Institutes of Health guidelines (UCUCA #PRO0005111).
Foot inflammation in response to carrageenan injection was conducted in CFZ and control mice as previously described (Otterness I G, et al., Moore P F (1988) Immunochemical Techniques Part L: Chemotaxis and Inflammation (Elsevier) doi:10.1016/0076-6879(88)62086-6). In brief, the volume of each hind paw was measured with a caliper before and after the intraplantar injection of 30 μl 2% carrageenan ([…]) in PBS or equal volume of PBS in the contralateral paw. Paw swelling was measured at 4 and 48 h after injection, after which the animals were euthanized by exsanguination while deeply anesthetized with an intraperitoneal injection of ketamine (100 mg/kg) and xylazine (10 mg/kg), and the skin tissues of the plantar region were harvested for cytokine assay (see below).

CC(C)/N=c1\cc2n(-c3ccc(Cl)cc3)c3ccccc3nc-2cc1Nc1ccc(Cl)cc1 [CFZ, 3-(p-chloroanilino)-10-(p-chlorophenyl)-2, 10-dihydro-2-isopropyliminophenazine]
% CLDI(+) cells identified as F4/80(+) CD86(+) ([1]; 4 weeks post-drug feeding): ~38% | % CLDI(+) cells identified as F4/80(+) CD206(+) ([1]; 4 weeks post-drug feeding): ~20% | ratiometric CD86 median surface expression in CLDI(+) relative to CLDI(−) ([1]; 4 weeks post-drug feeding): ~1.17 | % of F4/80(+) PMΦ that were CLDI(+) ([1]; 8 weeks of washout): ~25% | ratiometric CD86 median surface expression in CLDI(+) relative to CLDI(−) ([1]; 8 weeks post-drug feeding): 0.95 | % CLDI(+) cells identified as F4/80(+) CD86(+) ([1]; 8 weeks+8 weeks washout): ~70% | % CLDI(+) cells identified as F4/80(+) CD206(+) ([1]; 8 weeks+8 weeks washout): ~81% | CLDI accumulation within F4/80(+) CD86(+) cells ([1]; 8 weeks+8 weeks washout): ~95% | CLDI(+)% as a proportion of F4/80(+) CD206(+) cells ([1]; 8 weeks+8 weeks washout): ~93% | % of F4/80(+) PMΦ that were CLDI(+) ([1]; after 4 weeks of CFZ treatment): ~38% | CLDI accumulation within F4/80(+) CD86(+) cells ([1]; after 4 weeks of CFZ treatment): ~31% | CLDI(+)% as a proportion of F4/80(+) CD206(+) cells ([1]; after 4 weeks of CFZ treatment): ~15% | % of F4/80(+) PMΦ that were CLDI(+) ([1]; after 8 weeks of treatment): ~61% | % of total CLDI(+) cells localized to F4/80(+) peritoneal macrophages ([1]; all measured time points): > 85% | cell viability (RAW 264.7 cells; 2 μM): 61% | cell viability (RAW 264.7 cells; 10 μM): 20% | footpad homogenate IL-1RA levels ([2]; 2 weeks of CFZ treatment, 48 h): reduced | paw swelling vs untreated mice ([2]; 2 weeks of CFZ treatment, 48 h (legend: 4 and 48 h)): only a modest reduction in paw swelling; also recorded: only a minor reduction in swelling at 4 and 48 h | reduction in paw swelling vs untreated mice ([2]; 8 week CFZ-treated, 4 h post-injection): 57% | plasma IL-1RA levels after carrageenan ([2]; 8 week CFZ-treated, 4 h post-injury): rapidly declined at 4 h post-injury | footpad homogenate IL-1RA levels ([2]; 8 week CFZ-treated, 48 h): increased | footpad homogenate IL-1β and TNFα levels ([2]; 8 week CFZ-treated, 48 h): dramatically reduced | paw swelling vs untreated mice ([2]; 8 week CFZ-treated, 48 h post-injection): strikingly reduced swelling | anti-inflammatory effect (paw swelling) ([2]; IL-1RA KO mice, 6 weeks CFZ): greatly diminished in IL-1RA KO mice | paw swelling ([2]; WT mice, 6 weeks CFZ): reduced swelling compared to untreated and injured mice | footpad IL-1β levels ([2]; WT mice, 6 weeks CFZ, injured): significantly reduced | plasma levels of TNFα and IL-1β ([2]; all mice, ELISA detection limit): < 15 pg/mL
